Test results reported in publication doi:10.1101/2023.10.24.563163v2, “Targeting cancer with small molecule pan-KRAS degraders” (biorxiv, 2024).

Experiments:
[1] = target: T1, KRAS^G12D GDP (Homo sapiens, UniProt P01116, C118S/G12D); assay: biochemical; design: SPR binary and ternary complex binding affinity and kinetics; details: GDP-bound; read-out: SPR KRAS^G12D GDP KD
T1 construct: residues 1-169, C118S background
Excerpt: (§1) With the objective of identifying molecules that potently degrade multiple KRAS mutants we next sought to employ structure-based design using the solved ternary co-crystal structure of compound 3 to improve ternary complex stability and intracellular VHL engagement. […] Analysis of the VCB:compound 3:KRAS^G12V co-crystal structure (Fig. 1H) highlighted an opportunity to enhance interactions within the ternary complex by improving π-stacking between the exit vector amide of the VHL ligand and Tyr112. We therefore switched the amide for an isoxazole, which has been previously reported to improve VCB affinity in this position in other contexts ([22]), yielding compound 4 (Fig. 2A). A ternary complex co-crystal structure of VCB:compound 4:KRAS^G12V (PDB 8QW7) confirmed a consistent overall binding mode to that observed for compound 3 (RMSD = 0.72 Å), with compound 4 able to engage in π-stacking interaction between the isoxazole and Tyr112 of VCB as designed (Fig. 2B). […] FP, SPR and cellular target engagement studies support a minor improvement in binary VHL engagement for compound 4, with moderate cooperativity retained (fig. S2A-C, table S1). […] We then investigated the impact of these structural changes on degradation kinetics in live HiBiT-tagged GP5d cells (fig. S3A-D). […] Aiming to measure ternary complex stability, we noted that the FP assay reached the limits of quantification due to ternary KD approaching that of the assay probe (fig. S8B).

[2] = target: T2, KRAS (Homo sapiens, UniProt P01116, C118S/G12V); assay: biochemical; design: SPR binary and ternary complex binding affinity and kinetics; details: GDP-bound; read-out: SPR KRAS^G12V GDP KD
T2 construct: residues 1-169, C118S background; His6 tag removed, E. coli; biotinylated for SPR
Excerpt: as §1

[3] = target: KRAS^G12V (Homo sapiens, UniProt P01116, G12V); design: endogenous in SW620; KRAS degradation by capillary electrophoresis (Wes) immunodetection; details: SW620; 6 h; degrader
Experimental: (§2) Protein Detection by Capillary Electrophoresis Cells (50 000) were seeded the day before treatment into 96-well clear-flat bottom plates and incubated overnight (37 °C, humidified tissue culture incubator, 5% CO2). Compounds were added from DMSO stock solution using a digital dispenser and cells are incubated at 37 °C as specified (24 hours for KRAS degradation, 6 hours for determination of pERK levels). At the end of the incubation, medium was removed, cells washed with ice cold PBS, PBS removed and 50 µL lysis buffer (Meso Scale Discovery #R60TX-2) supplemented with 1:100 protease inhibitor solution, 1:100 phosphatase inhibitor I, 1:100 phosphatase inhibitor II (Meso Scale Discovery #R70AA-1), 0.5 µL/mL Benzonase (Novagen #70664-3) and 10 mM dithiothreitol added to each well. Plates with lysis buffer were immediately transferred to -80 °C freezer for at least 2 hours and then thawed on ice. Lysates were transferred to a 96 well V-bottom plate and insoluble debris was pelleted by centrifugation for 20 min. at 4 000 rpm. 40 µL of the supernatant were transferred to a fresh Eppendorf PCR plate. Analysis of protein levels was conducted using the Wes System, ProteinSimple (https://www.bio-techne.com/) as specified by the manufacturer. […]

[4] = tested on: GP2d; assay: cells; design: pERK levels by capillary electrophoresis; details: GP2d, 6 h
Experimental: Protein Detection by Capillary Electrophoresis Cells (50 000) were seeded the day before treatment into 96-well clear-flat bottom plates and incubated overnight (37 °C, humidified tissue culture incubator, 5% CO2). Compounds were added from DMSO stock solution using a digital dispenser and cells are incubated at 37 °C as specified (24 hours for KRAS degradation, 6 hours for determination of pERK levels). At the end of the incubation, medium was removed, cells washed with ice cold PBS, PBS removed and 50 µL lysis buffer (Meso Scale Discovery #R60TX-2) supplemented with 1:100 protease inhibitor solution, 1:100 phosphatase inhibitor I, 1:100 phosphatase inhibitor II (Meso Scale Discovery #R70AA-1), 0.5 µL/mL Benzonase (Novagen #70664-3) and 10 mM dithiothreitol added to each well. Plates with lysis buffer were immediately transferred to -80 °C freezer for at least 2 hours and then thawed on ice. Lysates were transferred to a 96 well V-bottom plate and insoluble debris was pelleted by centrifugation for 20 min. at 4 000 rpm. 40 µL of the supernatant were transferred to a fresh Eppendorf PCR plate. Analysis of protein levels was conducted using the Wes System, ProteinSimple (https://www.bio-techne.com/) as specified by the manufacturer. Briefly, Wes Master Mix (12-230 kDa WES Separation Module, 8 × 25 capillary cartridges, ProteinSimple #SM-W004) and molecular weight markers were prepared as specified in the manufacturer’s recommendations. To detect primary antibodies, anti-rabbit (Protein Simple #DM-001) or anti-mouse (Protein Simple #DM-002) detection modules were used. 7.2 µL lysate + 1.8 µL master mix were combined and heated to 95 °C for 5 min. Th

[5] = tested on: NCI-H358; assay: cells; design: Inhibition of cell proliferation, 5 days; details: Homo sapiens, NCI-H358, 120 h; read-out: IC50 Proliferation NCI-H358
Excerpt: Next, we set out to test the ability of a single pan-KRAS degrading molecule, compound 4, to selectively suppress oncogenic signaling and proliferation in cancer cell lines driven by diverse KRAS mutants. To this end, we first confirmed degradation of KRAS by compound 4 in KRAS-dependent (GP2d, SW620 and NCI-H358 expressing KRAS^G12D, - G12V or -G12C, respectively) as well as in KRAS independent (A-375, HEK293) cell lines (Fig. 3A, fig. S4A). […] Both inhibition and degradation repressed the established markers of MAPK signaling pERK (fig. S4B-D) and DUSP6 (Fig. 3B, fig. S4E) in KRAS dependent cell lines. […] Neither degradation nor inhibition had appreciable antiproliferative effects in the KRAS independent cell lines A-375 and HEK293 (Fig. 3C, fig. S4F). […] Pan-KRAS degradation impacts MAPK signaling and cancer cell proliferation.

[6] = target: KRAS^G12D (Homo sapiens, UniProt P01116, G12D); design: endogenous or HiBiT-tagged in cells; KRAS degradation by capillary electrophoresis (Wes) immunodetection; details: GP2d; 6 h; degrader
Experimental: as §2

[7] = target: T3, VHL:EloC:EloB (VCB) complex (Homo sapiens, UniProt P40337); assay: biochemical; design: SPR binary and ternary complex binding affinity and kinetics; details: SPR, binary
T3 construct: VHL 54-213 (His6 tag removed by TEV), EloC 17-112, EloB 1-104 co-expressed in E. coli; heterotrimer; with Elongin-C; Elongin-B
Excerpt: as §1

[8] = target: T4, VCB:KRAS ternary complex partners (Homo sapiens, UniProt P01116+P40337, P01116:C118S/P01116:G12D); assay: biochemical; design: FP displacement of FAM-HIF-1alpha peptide from VCB, with or without saturating KRAS G12D; details: FP, saturating KRAS G12D
T4 construct: VCB (Avi-tagged, biotinylated for SPR) plus KRAS 1-169 C118S GDP; E. coli, His6 tags removed; with Elongin-C; Elongin-B
T4 sequence (Q15370 1-104): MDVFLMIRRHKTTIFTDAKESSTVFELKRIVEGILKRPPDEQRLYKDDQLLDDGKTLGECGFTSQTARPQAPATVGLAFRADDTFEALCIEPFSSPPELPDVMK
T4 sequence (P01116 1-169 G12D/C118S): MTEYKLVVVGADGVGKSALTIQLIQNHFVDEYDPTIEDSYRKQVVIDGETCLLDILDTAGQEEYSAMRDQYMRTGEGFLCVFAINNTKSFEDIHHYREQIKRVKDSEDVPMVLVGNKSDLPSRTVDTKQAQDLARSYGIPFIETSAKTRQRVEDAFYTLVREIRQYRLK
T4 sequence (Q15369 17-112, further chain): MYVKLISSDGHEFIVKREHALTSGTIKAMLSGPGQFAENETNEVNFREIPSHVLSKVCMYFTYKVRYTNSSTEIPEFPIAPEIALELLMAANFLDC
T4 sequence (P40337 54-213): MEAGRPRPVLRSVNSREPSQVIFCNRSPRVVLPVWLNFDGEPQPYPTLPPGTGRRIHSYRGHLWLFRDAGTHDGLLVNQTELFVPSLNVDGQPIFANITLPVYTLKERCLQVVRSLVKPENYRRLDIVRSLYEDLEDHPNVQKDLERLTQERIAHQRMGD

T2 sequence (P01116 1-169 G12V/C118S): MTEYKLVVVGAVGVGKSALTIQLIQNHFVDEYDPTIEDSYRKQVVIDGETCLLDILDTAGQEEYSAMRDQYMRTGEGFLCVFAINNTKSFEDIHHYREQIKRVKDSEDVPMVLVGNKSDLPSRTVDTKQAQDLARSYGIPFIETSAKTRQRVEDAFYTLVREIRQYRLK
T3 sequence (Q15369 17-112): as the sequence (Q15369 17-112, further chain) above
T3 sequence (Q15370 1-104, further chain): as the sequence (Q15370 1-104) above
T3 sequence (P40337 54-213): as the sequence (P40337 54-213) above
T1 sequence (P01116 whole entry G12D/C118S, the tested form may be a part): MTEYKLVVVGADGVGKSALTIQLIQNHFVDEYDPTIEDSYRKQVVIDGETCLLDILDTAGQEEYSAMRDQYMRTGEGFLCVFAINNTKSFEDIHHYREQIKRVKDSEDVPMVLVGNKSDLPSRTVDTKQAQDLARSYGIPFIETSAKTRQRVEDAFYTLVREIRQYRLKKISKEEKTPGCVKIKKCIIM
Chain of KRAS^G12V (P01116 whole entry G12V): as the sequence (P01116 whole entry G12D/C118S, the tested form may be a part) above, with D12V, S118C counted along it
Chain of KRAS^G12D (P01116 whole entry G12D): as the sequence (P01116 whole entry G12D/C118S, the tested form may be a part) above, with S118C counted along it

SMILES	Kd [1]	Kd [2]	DC50 [3]	IC50 [4]	IC50 [5]	DC50 [6]	kon ([7]; read-out: SPR VCB kon [1/(M s)])	Kd [8]	Kd [7]
Cc1ncsc1-c1ccc(CNC(=O)[C@@H]2C[C@@H](O)CN2C(=O)[C@@H](c2cc(OCCCCN3CCCN(c4nccc(-c5noc([C@@]6(C)CCCc7sc(N)c(C#N)c76)n5)n4)[C@@H](C)C3)no2)C(C)C)cc1 [compound 4]	11 ± 1 nM	8 nM	24 nM	3.1 nM	85.4 nM	7.3 nM	–	–	–
Cc1ncsc1-c1ccc(CNC(=O)[C@@H]2C[C@@H](O)CN2C(=O)[C@@H](NC(=O)CCCCCN2CCCN(c3nccc(-c4noc([C@@]5(C)CCCc6sc(N)c(C#N)c65)n4)n3)[C@@H](C)C2)C(C)(C)C)cc1 [compound 3]	13 ± 2 nM	9 ± 1 nM	159 nM	772 nM	983 nM	53.4 nM	136000 M⁻¹ s⁻¹	20 ± 3 nM	–
Cc1ncsc1-c1ccc(CNC(=O)[C@@H]2C[C@@H](O)CN2C(=O)[C@@H](NC(=O)COCCCN2CCCN(c3nccc(-c4noc([C@@]5(C)CCCc6sc(N)c(C#N)c65)n4)n3)[C@@H](C)C2)C(C)(C)C)cc1 [compound 2]	240 ± 31 nM	136 ± 1 nM	–	–	–	–	–	15 ± 2 nM	737 ± 388 nM
Cc1ncsc1-c1ccc([C@H](CO)NC(=O)[C@@H]2C[C@@H](O)CN2C(=O)[C@H](C(C)C)n2cc(OCCCCN3CCCN(c4nccc(-c5noc([C@@]6(C)CCCc7sc(N)c(C#N)c76)n5)n4)[C@@H](C)C3)nn2)cc1 [compound 7, ACBI3]	–	–	–	–	–	–	–	–	11.1 ± 0.3 nM
